Results taken from ChEMBL document CHEMBL4715747 (Eur J Med Chem, 2016).
The source made the active and inactive calls. The calls are words filed in the database; no cut-off is given here.

Assays:
[1] = Antiproliferative activity against human H7402 cells after 48 hrs by MTT assay; conditions: H7402, 48 h
HCT-116 = assay: Antiproliferative activity against human HCT-116 cells after 48 hrs by MTT assay; conditions: HCT-116, 48 h
[2] = Antiproliferative activity against human 3AO cells after 48 hrs by MTT assay
HEL = assay: cells; conditions: Homo sapiens, 48 h
Description: Antiproliferative activity against human HEL cells after 48 hrs by MTT assay

MDA-MB-231 = assay: cells; conditions: Homo sapiens, MDA-MB-231, 48 h
Description: Antiproliferative activity against human MDA-MB-231 cells after 48 hrs by MTT assay

Aorta = assay: Anti-angiogenesis activity in Wistar rat thoracic aortic rings assessed as decrease in number of microvessels sprouting at 20 ug/ml treated every other day for 9 days; assay type: functional, tissue-based; conditions: dose 20.0 µg/ml, time 9.0 day
[3] = Antiproliferative activity against human ES2 cells after 48 hrs by MTT assay; conditions: ES-2, 48 h
PLC-PRF-5 [4] = assay: Antiproliferative activity against human PLC-PRF-5 cells after 48 hrs by MTT assay; conditions: PLC-PRF-5, 48 h
KG-1 = assay: Antiproliferative activity against human KG1 cells after 48 hrs by MTT assay; conditions: KG-1, 48 h
MCF7 = assay: Antiproliferative activity against human MCF7 cells after 48 hrs by MTT assay; conditions: MCF7, 48 h
HUVEC [5] = assay: Anti-angiogenesis activity in HUVEC assessed as inhibition of capillary like tube formation at 30 uM incubated for 6 hrs by matrigel based capillary tube formation assay; assay type: functional
HeLa = assay: Antiproliferative activity against human HeLa cells after 48 hrs by MTT assay
HepG2 = assay: Antiproliferative activity against human HepG2 cells after 48 hrs by MTT assay; conditions: HepG2, 48 h
H22 [6] = assay: Antitumor activity against mouse H22 cells transplanted in Kunming mouse assessed as tumor growth inhibition at 20 mg/kg/day, ip administered 5 days per week for 2 weeks; assay type: functional, organism-based
H22 [7] = assay: Antitumor activity against 5-FU-resistant mouse H22 cells transplanted in Kunming mouse assessed as tumor growth inhibition at 200 uM/kg/day, po administered for 14 days; assay type: functional, organism-based; conditions: time 14.0 day
PC-3 = assay: cells; conditions: Homo sapiens, PC-3, 48 h
Description: Antiproliferative activity against human PC-3 cells after 48 hrs by MTT assay

[8] = Prodrug conversion in human plasma assessed as release of active metabolites 5-FU and Ube measured within 30 mins at 37 degC; assay type: ADME, cell-free; conditions: 0.5 h
H22 [9] = assay: Antitumor activity against mouse H22 cells transplanted in Kunming mouse assessed as tumor growth inhibition at 80 mg/kg/day, iv administered 5 days per week for 2 weeks relative to treated combination of 5-FU and Ube; assay type: functional, organism-based
H22 [10] = assay: Antimetastatic activity against mouse H22 cells inoculated in orally dosed Kunming mouse assessed as reduction in lung metastatic nodes administered for 5 days starting from day 11 post inoculation and 2 days of withdrawal measured after 24 days; assay type: functional, organism-based; conditions: dose 80-100 mg/kg, time 5.0 day
[11] = Toxicity in Kunming mouse transplanted with mouse H22 cells assessed as side effects at 40 to 80 mg/kg/day, po administered 5 days per week for 2 weeks; assay type: organism-based; conditions: in vivo, 336 h, dose 40-80 mg/kg/day
HUVEC [12] = assay: Anti-angiogenesis activity in HUVEC assessed as inhibition of capillary like tube formation incubated for 6 hrs by matrigel based capillary tube formation assay; assay type: functional, cell-based; conditions: Homo sapiens, dose 10-30 µM
PLC-PRF-5 [13] = assay: Antitumor activity against human PLC-PRF-5 cells xenografted in iv dosed BALB/c athymic nude mouse assessed as tumor growth inhibition; assay type: functional, organism-based; conditions: dose 20-80 mg/kg
H22 [14] = assay: Antitumor activity against mouse H22 cells transplanted in iv dosed Kunming mouse assessed as tumor growth inhibition administered 5 days per week for 2 weeks; assay type: functional, organism-based; conditions: dose 20-80 mg/kg
Aminopeptidase N = molecular target: T1, Aminopeptidase N (Sus scrofa, UniProt P15145); assay: Inhibition of porcine kidney microsomal CD13 using L-leucine-p-nitroanilide as substrate preincubated for 5 mins followed by substrate addition and measured after 30 mins by microplate reader analysis; assay type: microsomes, Microsome
T1 sequence (P15145 whole entry): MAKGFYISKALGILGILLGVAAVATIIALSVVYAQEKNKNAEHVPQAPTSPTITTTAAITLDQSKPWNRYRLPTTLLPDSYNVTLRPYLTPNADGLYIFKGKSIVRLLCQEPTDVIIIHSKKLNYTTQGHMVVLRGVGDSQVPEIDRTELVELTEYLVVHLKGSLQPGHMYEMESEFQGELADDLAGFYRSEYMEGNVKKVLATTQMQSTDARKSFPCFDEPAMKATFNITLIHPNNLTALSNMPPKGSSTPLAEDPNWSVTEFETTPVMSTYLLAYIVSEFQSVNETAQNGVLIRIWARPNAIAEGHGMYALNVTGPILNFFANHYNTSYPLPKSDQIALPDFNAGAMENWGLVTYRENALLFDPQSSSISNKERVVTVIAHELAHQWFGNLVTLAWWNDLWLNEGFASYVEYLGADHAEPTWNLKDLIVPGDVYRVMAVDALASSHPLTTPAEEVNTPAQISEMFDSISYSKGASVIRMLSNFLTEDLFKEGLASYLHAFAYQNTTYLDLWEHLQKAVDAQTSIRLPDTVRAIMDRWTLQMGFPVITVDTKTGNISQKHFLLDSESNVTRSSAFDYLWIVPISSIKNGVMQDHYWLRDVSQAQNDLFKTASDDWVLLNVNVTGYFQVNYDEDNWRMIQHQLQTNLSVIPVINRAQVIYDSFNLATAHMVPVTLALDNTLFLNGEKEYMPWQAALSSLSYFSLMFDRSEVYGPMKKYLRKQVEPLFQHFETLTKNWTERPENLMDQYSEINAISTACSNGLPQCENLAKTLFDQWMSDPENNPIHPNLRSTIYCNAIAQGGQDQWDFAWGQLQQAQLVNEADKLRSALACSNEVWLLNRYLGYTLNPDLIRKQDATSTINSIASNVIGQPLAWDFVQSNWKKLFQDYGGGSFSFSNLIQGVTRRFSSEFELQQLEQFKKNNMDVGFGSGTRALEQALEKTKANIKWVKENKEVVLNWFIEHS

H22 [15] = assay: Antitumor activity against mouse H22 cells transplanted in Kunming mouse assessed as tumor growth inhibition at 80 mg/kg/day, po administered 5 days per week for 2 weeks; assay type: functional, organism-based
H22 [16] = assay: Antitumor activity against mouse H22 cells transplanted in orally dosed Kunming mouse assessed as tumor growth inhibition administered 5 days per week for 2 weeks; assay type: functional, organism-based; conditions: dose 40-80 mg/kg
[17] = Toxicity in NOD/SCID mouse xenografted with human PLC-PRF-5 cells assessed as change in body weight at 100 to 120 mg/kg, po; assay type: organism-based; conditions: in vivo, dose 100-120 mg/kg
A549 = assay: Antiproliferative activity against human A549 cells after 48 hrs by MTT assay; conditions: A549, 48 h
PLC-PRF-5 [18] = assay: Antitumor activity against human PLC-PRF-5 cells xenografted in orally dosed NOD/SCID mouse assessed as tumor growth inhibition; assay type: functional, organism-based; conditions: dose 100-120 mg/kg
[19] = Toxicity in Kunming mouse transplanted with 5-FU-resistant mouse H22 cells assessed as change in body weight at 200 uM/kg/day, po administered daily for 14 days; assay type: organism-based; conditions: in vivo, 336 h, time 14 day
[20] = Toxicity in BALB/c athymic nude mouse xenografted with human PLC-PRF-5 cells assessed as change in body weight at 20 to 80 mg/kg, iv; assay type: organism-based; conditions: in vivo, dose 20-80 mg/kg
[21] = Toxicity in Kunming mouse transplanted with mouse H22 cells assessed as change in body weight at 40 to 80 mg/kg/day, po administered 5 days per week for 2 weeks; assay type: organism-based; conditions: in vivo, 336 h, dose 40-80 mg/kg/day
H22 [22] = assay: Antitumor activity against mouse H22 cells transplanted in Kunming mouse assessed as tumor growth inhibition at 100 mg/kg/day, po administered 5 days per week for 2 weeks; assay type: functional, organism-based

SMILES	IC50 [1] [µM]	IC50 (HCT-116) [µM]	IC50 [2] [µM]	IC50 (HEL) [µM]	IC50 (MDA-MB-231) [µM]	Activity (Aorta)	IC50 [3] [µM]	IC50 (PLC-PRF-5 [4]) [µM]	IC50 (KG-1) [µM]	IC50 (MCF7) [µM]	IC50 (HeLa) [µM]	IC50 (HepG2) [µM]	Activity (H22 [7])	IC50 (PC-3) [µM]	also measured
CC(C)C[C@H](NC(=O)[C@@H](O)[C@H](N)Cc1ccccc1)C(=O)O [UBENIMEX]	> 500	315	> 500	417	> 500	Active	> 500	> 500	> 500	> 500	> 500	> 500	–	–	Activity (HUVEC [5]; Homo sapiens): Active
O=c1[nH]cc(F)c(=O)[nH]1 [FLUOROURACIL]	29	84.9	60.8	32.3	22.5	–	93.5	38.4	83	71.5	133	13.5	inactive	106	Activity (H22 [6]): Active
CC(C)C[C@H](NC(=O)[C@@H](O)[C@H](N)Cc1ccccc1)C(=O)OCn1cc(F)c(=O)[nH]c1=O.Cl	11.5	14.7	25.9	9.18	10.5	Active	22.8	17.5	30.9	19	7.27	7.49	Active	24.3	Drug metabolism [8]: Metabolite_Detected; Activity (H22 [9]): Active; Activity (H22 [10]): Dose-dependent effect; Activity [11]: Non-Toxic; Activity (HUVEC [12]): Dose-dependent effect; Activity (PLC-PRF-5 [13]): Dose-dependent effect; Activity (H22 [14]): Dose-dependent effect; IC50 (Aminopeptidase N): 6.98 µM; Activity (H22 [15]): Active; Activity (H22 [16]): Dose-dependent effect; Activity [17]: Non-Toxic; IC50 (A549): 5.68 µM; Activity (PLC-PRF-5 [18]): Dose-dependent effect; Activity (HUVEC [5]): 100%; Activity [19]: Non-Toxic; Activity [20]: Non-Toxic; Activity [21]: Non-Toxic
CCCCCOC(=O)Nc1nc(=O)n([C@@H]2O[C@H](C)[C@@H](O)[C@H]2O)cc1F	–	–	–	–	–	–	–	–	–	–	–	–	–	–	Activity (H22 [22]): Active
